Key:
[1] = system: Phosphatidyl inositol-specific phospholipase C; experiment: Phosphatidyl inositol-specific phospholipase C assay with sonicated human platelets, release of water-soluble 3H-inositol counts; assay type: biochemical; conditions: 250 μm PI, 10 minutes
Description: This invention also relates to a method of treating inflammation in patients using a compound of Formula (I) as the active constituent.
A. Protocol - Phosphatidyl inositol-specific
phospholipase C assays. The assays were performed as
follows: A mixture of PI (Sigma) and
(^3 H--inositol)-PI in CHCl3 are blown to dryness
under N2 and sonicated into a buffer containing DOC
and CaCl2 so that the final concentrations in each
0.5 mg/ml DOC containing an appropriate amount of
in 50 mM Hepes, 100 mM NaCl, 0.5 mg/ml BSA pH 7.
An aliquot of sonicated human platelets,
5 × 10^9 /ml, is added; the reaction is stopped after
10 minutes with a chloroform/methanol/H2 O solution
and the upper water phase is counted to detect
water-soluble inositol counts. The pH was checked
during each assay using pH paper to verify that none
of the compounds affected this parameter.

[2] = system: phospholipase C; conditions: background statement, no concentration given; cited from earlier work

Compound: CCCCCCCCCCCCCCCC(=O)OC1C(O)C(O)C(O)C(O)C1O (stereo not shown) [myo-inositol-5 (or 6)-palmitate]
- % Inhibition (specific phospholipase C inhibition) ([1]; Conc. 0.122 mM): 7%
- % Inhibition (specific phospholipase C inhibition) ([1]; Conc. 1.22 mM): 55%

Compound: CCCCCCCCCCCCNC(=O)OC1C(O)C(O)C(O)C(O)C1O (stereo not shown) [myo-inositol-6 (or 5)-dodecanecarbamate]
- % Inhibition (specific phospholipase C inhibition) ([1]; Conc. 0.8 mM): 16%

Compound: c1ccc2c(c1)Nc1ccccc1S2 [phenothiazine]
- inhibition of phospholipase C [2]: inhibited

Source: US4474806A, “Sulfonyl or carbonyl inositol derivatives useful as anti-inflammatory/analgesic agents” (Merck & Co., Inc., priority 1982, dated 1984)
